Where a name gives a salt, the structure may show the parent alone. Read-outs that look alike come from different tables or passages of the source. Values belong to the molecule of their own block, whether it stands above or below them.
Columns and labels:
[1] = assay type: physicochemical; conditions: stabilizer 5 mg/mL added after complex preparation; for RCP % t = 0 h: ^177Lu-A (3.34 mCi avg per aliquot), analysed 1-3.5 hrs after preparation; for RCP % t = 24 h: ^177Lu-A, room temperature
Procedure: In this study, sulfur-containing compounds were tested. Cysteine has been used as an antioxidant for many drugs that contain oxidizable residues.
Solutions of each individual stabilizer (10 mg/mL) were prepared in water. To a lead-shielded 4-mL vial was added 300 μL of NaOAc buffer (0.2M, pH 4.8), 29.0 mCi ^177LuCl3 and 41.4 μg COMPOUND A (dissolved in water). The ratio of COMPOUND A to Lutetium was 3:1. The reaction mixture was heated, cooled, treated with Na2EDTA.2H2O and analyzed by HPLC as described in Example 13. Seven 50-μL aliquots (3.34 mCi ^177Lu avg each) were transferred to individual HPLC vials. To one aliquot, 50 μL of water was added for use as a control sample (no stabilizer). To the other six aliquots, 50 μL of an individual stabilizer solution (0.5 mg of stabilizer) was added, and then each was analyzed by HPLC (Method 2). The control sample, and L-cysteine ethyl ester hydrochloride and L-cysteine methyl ester hydrochloride samples were analyzed again after 24 hours of storage at room temperature.

[2] = assay type: physicochemical; conditions: ^177Lu-A 13.9 mCi/mL, stabilizer 5 mg/mL added after complex preparation, room temperature
Procedure: (§1) The injection volume was 20 μL.
Compounds containing the —C═S moiety [dithiocarbamates and ethionamide] were examined in this study.
Each individual stabilizer was prepared at a concentration of 10 mg/mL in water. Ethionamide was dissolved in EtOH. […] The reaction mixture was heated to 100° C. for 5 minutes, then cooled for 5 minutes in an ambient-temperature water bath. […] To an aliquot, 100 μL of one of the stabilizer solutions (1 mg of stabilizer) was added. Each aliquot was analyzed (t=0 h) by HPLC (Method 2) and stored at room temperature for 48 hours. All samples were analyzed again at t=24 h and 48 h.

[3] = assay type: physicochemical
Procedure: The ratio of COMPOUND A to Lutetium was 3:1 for all samples. The reaction mixtures were heated, cooled, treated with Na2EDTA.2H2O and analyzed by HPLC as described in Example 13, and then stored at room temperature for 24 hours, at which time all samples were analyzed again.

[4] = assay type: physicochemical; remark: listed apart in the source
Procedure: as §1
Ethionamide was prepared at a 10 mg/mL concentration by dissolving it in EtOH. […] Another sample was prepared to which was added 100 μL of ethanol only (no stabilizer), for use as a control sample. […] The reaction mixture was heated to 100° C. for 5 minutes then cooled for 5 minutes in an ambient-temperature water bath. To each sample, 10 μL of 2% Na2EDTA.2H2O in water was added, and then each was analysed by HPLC (Method 2) and stored at room temperature for up to 96 hours.

[5] = Radiostability (RCP, Met═O by HPLC) of preformed ^177Lu-A with individual amino acids added (Example 1); assay type: physicochemical; conditions: amino acid 6.6 mg/mL, room temperature
Procedure: as §1
Solutions of the individual amino acids L-Methionine, L-Selenomethionine, L-cysteine HCl.H2O, L-Tryptophan, L-Histidine, and Glycine were prepared at a concentration of 10 mg/mL in 10 mM Dulbecco's phosphate-buffered saline, pH 7.0 [PBS].
The final radioactive concentration of each sample was ˜20 mCi/mL.

[6] = ^177Lu-A 50 mCi in 2 mL, room temperature
[7] = assay type: physicochemical; conditions: for RCP % t = 0 h: ^177Lu-A (4.80 mCi) prepared in presence of stabilizer 5 mg/mL; for RCP % t = 24 h / RCP % t = 48 h / RCP (%) t = 72 h: ^177Lu-A prepared in presence of stabilizer 5 mg/mL, room temperature
Procedure: Solutions of L-cysteine ethyl ester hydrochloride and L-cysteine methyl ester hydrochloride (5 mg/mL) were prepared by dissolving them in NaOAc buffer (0.2 M, pH 4.8). To lead-shielded 4-mL vials were added 200 μL of the individual NaOAc-stabilizer solutions, 4.80 mCi ^177LuCl3 and 7.26 μg COMPOUND A (dissolved in water). The ratio of COMPOUND A to Lutetium was 3:1 for all samples. The reaction mixtures were heated, cooled, treated with Na2EDTA.2H2O and analyzed by HPLC as described in Example 13, and then each was stored at room temperature for 72 hours. Each sample was analyzed by HPLC (Method 2) at t=0, 24, 48 and 72 h.

[8] = assay type: physicochemical; remark: listed apart in the source
Procedure: The reaction vial was crimp-sealed and heated at 100° C. for 5 min. […] The sample was stored in an autosampler in which the temperature is ˜6° C. […] than room temperature, and analyzed by RP-HPLC for up to 24 hours.
L-Selenomethionine: ^177Lu-B was prepared, diluted and analyzed as described above, but 5 mg of L-Se-Met was used in place of PDTC, the heating time was 10 minutes, and the quantity of radioactivity used was 52 mCi.
L-cysteine ethyl ester, HCl: ^177Lu-B was prepared, diluted and analyzed as described above, but 5 mg of L-CEE, hydrochloride salt was used in place of PDTC, the heating time was 5 minutes and the quantity of radioactivity used was 50 mCi.
L-cysteine HCl.H2O: ^177Lu-B was prepared, diluted and analyzed as described above, but 5 mg of L-Cys HCl.H2O was used in place of PDTC, the heating time was 8 minutes and the quantity of radioactivity used was 53 mCi.

SMILES: COC(=O)[C@@H](N)CSSC[C@H](N)C(=O)OC.Cl.Cl
RCP % t = 0 h [1]: 70.1%

RCP % t = 0 h [1]: 66.2%
SMILES: Cl.Cl.NCCSSCCN [Cystamine dihydrochloride]

RCP % t = 0 h ([2]; 0 h): 97.4%
RCP % t = 24 h ([2]; 24 h): 97.0%
RCP % t = 48 h ([2]; 48 h): 94.7%
RCP % t = 0 h ([3]; ^177Lu-A (4.65-5.64 mCi) prepared in presence of stabilizer 5 mg/mL, 0 h): 80.8%
RCP % t = 24 h ([3]; ^177Lu-A prepared in presence of stabilizer 5 mg/mL, room temperature, 24 h): 77.5%
RCP % t = 0 h ([4]; ^177Lu-A (5.25 mCi avg) prepared in presence of stabilizer ~3.33 mg/mL, 0 h): 100%
RCP % t = 24 h ([4]; ^177Lu-A prepared in presence of stabilizer ~3.33 mg/mL, room temperature, 24 h): 98.1%
RCP % t = 96 h ([4]; ^177Lu-A prepared in presence of stabilizer ~3.33 mg/mL, room temperature, 96 h): 94.6%
SMILES: CCc1cc(C(N)=S)ccn1 [Ethionamide, 2-Ethyl-4-pyridinecarbothioamide (Ethionamide), reference compound]

0-1 h RCP (%) ([5]; ^177Lu-A ~20 mCi/mL (3.5 mCi total), 0-1 h): 100%
24-h RCP (%) ([5]; ^177Lu-A ~20 mCi/mL, 24 h): 99.3%
48-h RCP (%) ([5]; ^177Lu-A ~20 mCi/mL, 48 h): 94%
% RCP 0-d ([6]; 2.5 mg/mL L-methionine (5 mg), 0 d): 96.1%
% RCP 1-d ([6]; 2.5 mg/mL L-methionine, 1 d): 53.5%
% RCP 2-d ([6]; 2.5 mg/mL L-methionine, 2 d): 26.9%
% RCP 5-d ([6]; 2.5 mg/mL L-methionine, 5 d): 0%
SMILES: CSCC[C@H](N)C(=O)O [L-Methionine]

SMILES: CCOC(=O)[C@@H](N)CSSC[C@H](N)C(=O)OCC.Cl.Cl [L-cysteine diethyl ester dihydrochloride]
RCP % t = 0 h [1]: 61.5%

RCP % t = 0 h [1]: 91.5%
RCP % t = 24 h [1]: 73.2%
RCP % t = 0 h [7]: 100%
RCP % t = 24 h [7]: 96.5%
RCP % t = 48 h [7]: 93.5%
RCP (%) t = 72 h [7]: 87.4%
(% RCP) 3-h ([8]; ^177Lu-B (44-53 mCi) formulated with 5 mg stabilizing compound, 3 h): 96.9%
(% RCP) 6-h ([8]; ^177Lu-B (44-53 mCi) formulated with 5 mg stabilizing compound, 6 h): 94.7%
(% RCP) 9-h ([8]; ^177Lu-B (44-53 mCi) formulated with 5 mg stabilizing compound, 9 h): 92.8%
(% RCP) 12-h ([8]; ^177Lu-B (44-53 mCi) formulated with 5 mg stabilizing compound, 12 h): 92.2%
(% RCP) 24-h ([8]; ^177Lu-B (44-53 mCi) formulated with 5 mg stabilizing compound, 24 h): 85.1%
(% RCP) 0-h ([8]; ^177Lu-B (44-53 mCi) formulated with 5 mg stabilizing compound, diluted to ~2 mL, ~6° C. above room temperature, 0 h): 98.4%
RCP Drop over 24 hr ([8]; ^177Lu-B formulated with 5 mg stabilizing compound, 0 to 24 h): 13.3%
SMILES: CCOC(=O)[C@@H](N)CS [L-cysteine ethyl ester hydrochloride]

RCP % t = 0 h [1]: 90.4%
RCP % t = 24 h [1]: 74.4%
RCP % t = 0 h [7]: 100%
RCP % t = 24 h [7]: 97.1%
RCP % t = 48 h [7]: 93.7%
RCP (%) t = 72 h [7]: 87.2%
SMILES: COC(=O)[C@@H](N)CS [L-cysteine methyl ester hydrochloride]

SMILES: N[C@@H](CS(=O)O)C(=O)O.O [L-cysteinesulfinic acid monohydrate]
RCP % t = 0 h [1]: 75.0%
